Results reported in patent US6482833B2, “Immunotherapeutic anti-cancer pharmaceutical compositions” (North Shore - Long Island Jewish Research Institute, priority 1997, dated 2002).
Entries after “also recorded” stand apart in the source; their conditions may differ.

Legend:
[1] = system: TNFα release from LPS-stimulated macrophage cell cultures; assay: TNF release from LPS-activated monocyte/macrophage cultures counter-regulated by spermine (ELISA); format: cell-based, human; details: for override of spermine inhibition of TNFα release: LPS-stimulated cells with spermine, TNFα in culture supernatants, dose-response
Method: Macrophage activation was measured by release of TNF into macrophage cell culture supernatants.
Monocytes were isolated and cultured by isolating fresh human PBMCs from EDTA-blood from healthy donors (Long Island Blood Service, Melville, N.Y.) by Ficoll-Paque (Pharmacia, Uppsala, Sweden) gradient. Cells were suspended in RPMI 1640 medium (Gibco BRL, Grand Island, N.Y.) containing 10% heat-inactivated human serum, 0.1% L-glutamine, and 0.01% gentamycin), and cultured at 37° C. in a humidified atmosphere of 5% CO2 and 95% air. PBMCs were plated in 96-well plates at 5×10^5 cells per well for cytokine assay and uptake study or in 24-well plates at 5×10^6 cells per well for RNA study. Nonadherent cells were removed after overnight culture, and adherent cells (monocytes) were then used for experiment.
(§1) Monocytes were activated to release cytokines by treating cells with 100 ng/ml sonicated LPS (Sigma, St Louis, Mo.) and 25 u/ml recombinant human interferon-γ (Boehringer Mannheim, Mannheim, Germany) except 1 μg/ml LPS alone for IL-1β. For treating cells with spermine, cells were pretreated with spermine (Sigma, St Louis, Mo.) one hour before LPS/IFG stimulation. Spermine was made freshly each time in sterile-filtered deionized water at 51.2 mM or 35 mM, and then diluted in complete RPMI 1640 medium followed by adding to individual wells to yield the final concentration indicated. Control wells received an equal volume of medium only were used in all experiment.

[2] = system: tumor cells; assay: Direct cytotoxicity of the immunomodulatory compounds; format: cell-based; details: effective immunostimulatory concentrations
[3] = system: B16 F1 tumor cells; assay: In vivo mouse tumor model (B16 F1 cells), tumor size and formation; parameters: species or system mice; details: for solid tumor masses: mice, administered parenterally
[4] = Carrageenan foot pad edema model of inflammation; format: in vivo, mice
Method: To determine an inflammatory […] foot pad edema model with carrageenan, female C3H/HeN mice (20-25g) were obtained from Jackson Laboratories, and 5 mice were used in each group to obtain statistically significant results. […] Louis, Mo.) was made in PBS at 37° C. 3 days or more before using. […] Louis, Mo.) was made freshly each time. Carrageenan (50 μl, 0.2%) was injected into the plantar surface of the left hind paw to induce paw edema in control group. and spermine at the doses indicated was coadministered in 50 μl PBS in three spermine groups. The right hind paw was injected with the same volume of PBS as control for every groups. The thickness of the two paws was measured double-blindly using a caliper 3 hours and 28 hours later. The difference in the thickness between the two paws was taken as inflammatory index.

[5] = system: TNF; assay: TNF levels in tumor biopsy samples of solid tumor-bearing mice; format: in vivo; details: 1 mg/kg ip; tumor biopsy samples in four mice
[6] = system: monocytes; details: spermine at the concentrations indicated
Method: as §1

[7] = system: G361 cells; assay: Macrophage-mediated cytotoxicity of LPS-activated monocytes to tumor cells
Method: Tumor cell cultures were split tumor cells 1:3 in FBS-containing RPMI 1640 medium and incubate overnight 20 μCi/ml ^3H-thymidine was added to tumor cell cultures to label the cells overnight. The cells were washed to remove unabsorbed label. The cells were trypsinized and suspended in 10 ml DPBS, washed and counted. Flasks of 7.5×10^5, 7.5/2×10^5, 7.5/4×10^5, 7.5/8×10^5, 7.5/16×10^5 and 7.7/32×10^5 cells/ml in RPMI 1640 medium were prepared. The tumor cells (200 μl) were added to wells containing 3×10^5 monocytes or control wells to make the E/T ratio 2:1, 4:1, 8:1, 16:1, 32:1 and 64:1. The cell mixture was incubated for 2 hours and macrophage-mediated cytotoxicity to tumor cells was determined.
PBMCs were isolated in a Ficoll-Paque (Pharmacia) gradient and plated. After 2 hours of incubation, the nonadherent cells were removed by rinsing with RPMI 1640 medium without serum 3×, then add 25 ml human serum-containing RPMI 1640 medium with 2 ng/ml human MCSF to each 75 flask and incubate the cells overnight. The cells were labeled with 20 uCi/ml ^3H-thymidine overnight and washed 2× with DPBS without Ca & Mg. The monocytes were isolated and counted, then diluted to 1.5×10^6 cells/ml in RPMI 1640. Tumor cells were diluted to 7.5×10^5, 7.5/2×10^5, 7.5/4×10^5, 7.5/8×10^5, 7.5/16×10^5 and 7.7/32×10^5 cells/ml in RPMI 1640 medium. About 200 μl tumor cells were added at different concentration to the wells containing 3×10^5 monocytes or control wells to make the E/T ratio 2:1, 4:1, 8:1, 16:1, 32:1 and 64:1, then incubated for 2 hrs.
About 400 μg/μl LPS was sonicated for 10 min, then 19.2 μl 400 μg/ml LPS was added to 10 ml RPMI 1640 medium.

[8] = 50 μM spermine, macrophages activated by endotoxin (LPS)

## CC1(C)CC(NCCCCCCNC2CC(C)(C)NC(C)(C)C2)CC(C)(C)N1 [compound 38, N,N′-bis(2,2,6,6-tetramethyl-4-piperidyl)hexamethylenediamine]
[1]
  override of spermine inhibition of TNFα release: overcome spermine inhibition of TNFα release; also recorded: effectively overrode spermine-induced suppression of TNF secretion
[2]
  direct cytotoxicity: not cytotoxic
[3]; mice inoculated with equal amounts of tumor cells, three doses at two concentrations
  tumor formation: delayed tumor formation
[3]
  solid tumor masses: shrink solid tumor masses
[4]; in vivo mouse paw edema model, dose response
  paw edema, override of inflammatory inhibition by spermine: overrode the inflammatory inhibition by spermine
[4]; mouse foot pad carrageenan model, clinical concentrations
  paw thickness, override of spermine effect: overrides the spermine effect

## NCCCN1CCN(CCCN)CC1 [compound 91]
[1]
  override of spermine inhibition of TNFα release: effectively overrode spermine-induced suppression of TNF secretion
[2]
  direct cytotoxicity: not cytotoxic
[3]; 2 mg/kg
  tumor size, time-response: shrink tumor size
[3]; 2 mg/kg administered seven days after tumor inoculation
  growth of established tumors: inhibited the growth of established tumors
[3]
  solid tumor masses: shrink solid tumor masses
[3]; two doses i.p., 0.5 mg/kg and 2 mg/kg in sterile PBS
  tumor size, time response and dose-response: shrink tumor size
[5]
  TNF levels in tumors: significantly increase TNF levels in tumors

## NCCCCC(CN)CCCN (stereo not shown) [compound 94]
[2]
  direct cytotoxicity: not cytotoxic

## C(CCC1CCNCC1)CC1CCNCC1 [compound 214140]
[1]
  override of spermine inhibition of TNFα release: override the inhibitory effect of spermine

## NCCCNCCCCNCCCN [spermine]
[1]; [8]
  suppression of TNF secretion: effectively suppressed TNF secretion
[1]; serum-free conditions and in the presence of the polyamine oxidase inhibitor aminoguanidine
  inhibition of cytokine synthesis: effectively inhibit cytokine synthesis
[4]; local administration in mice
  acute footpad inflammation induced by carageenan: protected mice against the development of acute footpad inflammation
[6]
  cell viability (LDH assay): did not affect cell viability significantly
[7]; 100 ng/ml LPS, 50 mM spermine, several ratios
  percent cytotoxicity, LPS alone versus LPS with spermine: reduces LPS-induced cytotoxicity
[7]; 100 ng/ml LPS, 50-100 μM spermine
  cellular cytotoxicity of activated monocytes against G361 cells: significantly inhibited
[7]; [8]
  macrophage-mediated tumor cell killing: effectively suppressed macrophage-mediated tumor cell killing
